Results published in paper PMC7105138, “Modeling cancer genomic data in yeast reveals selection against ATM function during tumorigenesis” (PLoS Genetics, 2020).
Positions count from the first letter of the chain named.

Legend:
[1] = tested on: Rad50 WT (Saccharomyces cerevisiae); test: EMSA; conditions: ATP, 5 mM Mg2+, 150 mM NaCl; 25 mM Tris-Cl pH 7.6, 150 mM NaCl (also 50, 250, 300 mM), 7.5% glycerol, 1 mM beta-mercaptoethanol, 0.125% Igepal, 5 mM MgCl2, with or without 5 mM ATP; 5 nM …
Rad50 [2] = target: T1, Rad50 (Saccharomyces cerevisiae, UniProt P12753); test: nitrocellulose filter binding, […]-ATP; conditions: 2 uM Rad50, 50 uM ATP incl. 0.1 uM alpha-32P-ATP (labelled compound), 2 mM MgCl2, pH 8.0, RT then ice
T1 construct: full-length Rad50 with C-terminal 1xFLAG tag (DYKDDDDK), tag kept; plasmid pR50.1 (2mu, GAL-PGK-RAD50); overexpressed and purified from yeast
T1 sequence (P12753 1-1312): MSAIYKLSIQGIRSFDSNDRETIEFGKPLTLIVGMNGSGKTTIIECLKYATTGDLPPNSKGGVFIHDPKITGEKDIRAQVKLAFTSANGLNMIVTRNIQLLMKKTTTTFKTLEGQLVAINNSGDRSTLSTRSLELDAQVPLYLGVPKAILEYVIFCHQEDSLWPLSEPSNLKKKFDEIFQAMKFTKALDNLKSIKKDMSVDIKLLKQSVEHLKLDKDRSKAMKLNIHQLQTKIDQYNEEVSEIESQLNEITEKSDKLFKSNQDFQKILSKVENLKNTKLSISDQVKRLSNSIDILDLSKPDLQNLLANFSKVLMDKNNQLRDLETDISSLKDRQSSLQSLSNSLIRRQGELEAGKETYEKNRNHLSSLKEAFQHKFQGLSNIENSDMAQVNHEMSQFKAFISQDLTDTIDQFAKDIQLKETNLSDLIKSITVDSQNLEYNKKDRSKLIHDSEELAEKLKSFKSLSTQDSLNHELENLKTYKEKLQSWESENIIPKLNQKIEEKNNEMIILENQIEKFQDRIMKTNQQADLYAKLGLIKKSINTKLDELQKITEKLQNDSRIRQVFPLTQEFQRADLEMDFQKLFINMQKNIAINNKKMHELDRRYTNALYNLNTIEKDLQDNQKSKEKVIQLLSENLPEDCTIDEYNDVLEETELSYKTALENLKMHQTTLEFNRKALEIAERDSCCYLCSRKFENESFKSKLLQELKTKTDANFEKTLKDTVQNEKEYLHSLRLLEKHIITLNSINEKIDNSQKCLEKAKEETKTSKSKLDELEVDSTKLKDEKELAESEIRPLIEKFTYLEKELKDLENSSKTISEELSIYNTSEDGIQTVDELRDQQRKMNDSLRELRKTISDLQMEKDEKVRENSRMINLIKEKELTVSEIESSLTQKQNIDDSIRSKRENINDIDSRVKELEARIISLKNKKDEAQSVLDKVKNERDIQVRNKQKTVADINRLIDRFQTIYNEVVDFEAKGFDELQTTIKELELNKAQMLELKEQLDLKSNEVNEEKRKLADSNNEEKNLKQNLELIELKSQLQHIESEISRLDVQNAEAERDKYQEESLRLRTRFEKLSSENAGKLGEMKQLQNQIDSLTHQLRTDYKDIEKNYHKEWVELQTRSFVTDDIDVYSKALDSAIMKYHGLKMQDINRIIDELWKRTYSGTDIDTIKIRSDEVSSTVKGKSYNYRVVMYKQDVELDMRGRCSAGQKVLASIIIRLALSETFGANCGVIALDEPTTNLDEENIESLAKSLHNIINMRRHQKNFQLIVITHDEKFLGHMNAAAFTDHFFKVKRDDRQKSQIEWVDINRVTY

Rad50 [3] = target: T2, Rad50 (Saccharomyces cerevisiae, UniProt P12753, D67N); test: nitrocellulose filter binding, […]-ATP; conditions: 2 uM Rad50, 50 uM ATP incl. 0.1 uM alpha-32P-ATP (labelled compound), 2 mM MgCl2, pH 8.0, RT then ice
T2 construct: full-length Rad50 with C-terminal 1xFLAG tag (DYKDDDDK), tag kept; plasmid pR50.1 (2mu, GAL-PGK-RAD50); overexpressed and purified from yeast
T2 sequence (P12753 1-1312 D67N): T1 sequence (P12753 1-1312) with D67N

Rad50 [4] = target: T3, Rad50 (Saccharomyces cerevisiae, UniProt P12753, D67Y); test: nitrocellulose filter binding, […]-ATP; conditions: 2 uM Rad50, 50 uM ATP incl. 0.1 uM alpha-32P-ATP (labelled compound), 2 mM MgCl2, pH 8.0, RT then ice
T3 construct: full-length Rad50 with C-terminal 1xFLAG tag (DYKDDDDK), tag kept; plasmid pR50.1 (2mu, GAL-PGK-RAD50); overexpressed and purified from yeast
T3 sequence (P12753 1-1312 D67Y): T1 sequence (P12753 1-1312) with D67Y

Rad50 [5] = target: T4, Rad50 (Saccharomyces cerevisiae, UniProt P12753, L1240F); test: nitrocellulose filter binding, […]-ATP; conditions: 2 uM Rad50, 50 uM ATP incl. 0.1 uM alpha-32P-ATP (labelled compound), 2 mM MgCl2, pH 8.0, RT then ice
T4 construct: full-length Rad50 with C-terminal 1xFLAG tag (DYKDDDDK), tag kept; plasmid pR50.1 (2mu, GAL-PGK-RAD50); overexpressed and purified from yeast
T4 sequence (P12753 1-1312 L1240F): T1 sequence (P12753 1-1312) with L1240F

molar ratio of bound ATP to Rad50 (Rad50 [2]) | ATP/Rad50 (Rad50 [3]) | ATP/Rad50 (Rad50 [4]) | ATP/Rad50 (Rad50 [5]) | Compound | Kd [1]
 |  |  |  | 83-mer dsDNA oligonucleotide | 180 nM
1.1 ATP/Rad50 | 0.6 ATP/Rad50 | 0.7 ATP/Rad50 | 0.4 ATP/Rad50 | Nc1ncnc2c1ncn2[C@@H]1O[C@H](COP(=O)(O)OP(=O)(O)OP(=O)(O)O)[C@@H](O)[C@H]1O [ATP] | 
